Data as given in PMC6803673, “Molecular features of the UNC-45 chaperone critical for binding and folding muscle myosin” (Nature Communications, 2019).
Positions count from the first letter of the chain named. Numbers in names are those of the source. Each block holds one molecule with its values, some of them ahead of it.

Experiments:
[1] = target: T1, MHC-B (myosin II heavy chain isoform B, UNC-54) motor domain (Caenorhabditis elegans, UniProt P02566); test: X-ray crystal structure, […] A; conditions: nucleotide-binding pocket of the motor domain; crystals pH 6.5, 4 °C
T1 construct: motor domain, residues 1-790, C-terminal His6-tag, co-expressed with C. elegans UNC-45 in High Five insect cells, monomeric
T1 sequence (P02566 1-790): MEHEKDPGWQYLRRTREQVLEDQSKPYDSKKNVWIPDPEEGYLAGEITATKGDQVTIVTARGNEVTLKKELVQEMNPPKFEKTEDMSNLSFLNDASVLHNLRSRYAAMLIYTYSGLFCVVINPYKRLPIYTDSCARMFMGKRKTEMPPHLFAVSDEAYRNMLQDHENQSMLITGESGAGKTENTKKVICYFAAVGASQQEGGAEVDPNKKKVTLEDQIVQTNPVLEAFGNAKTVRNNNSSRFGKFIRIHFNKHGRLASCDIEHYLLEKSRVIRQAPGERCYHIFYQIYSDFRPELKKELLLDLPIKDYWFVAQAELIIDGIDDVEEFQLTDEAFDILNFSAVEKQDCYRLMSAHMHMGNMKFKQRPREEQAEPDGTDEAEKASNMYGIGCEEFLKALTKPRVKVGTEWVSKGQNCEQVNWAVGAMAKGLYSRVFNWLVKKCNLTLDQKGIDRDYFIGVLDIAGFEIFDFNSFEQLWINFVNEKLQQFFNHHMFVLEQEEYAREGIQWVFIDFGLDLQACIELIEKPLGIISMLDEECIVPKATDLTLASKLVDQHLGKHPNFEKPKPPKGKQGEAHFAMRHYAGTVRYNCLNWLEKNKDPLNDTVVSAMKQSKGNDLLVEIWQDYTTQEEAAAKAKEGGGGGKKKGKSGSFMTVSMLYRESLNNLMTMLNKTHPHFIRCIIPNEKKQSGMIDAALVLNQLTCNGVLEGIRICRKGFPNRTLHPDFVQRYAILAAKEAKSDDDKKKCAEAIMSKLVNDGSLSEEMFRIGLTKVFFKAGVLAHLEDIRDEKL

[2] = target: T1, MHC-B (myosin II heavy chain isoform B, UNC-54) motor domain; test: stopped-flow single turnover, intrinsic tryptophan fluorescence; format: biochemical; conditions: no actin; 20 mM MOPS pH 7.0, 25 mM KCl, 5 mM MgCl2, 20 °C
[3] = target: T2, UNC-45 wild type (bacterial) (C. elegans, UniProt G5EG62 1-961); test: SEC; myosin incubated at 27 °C for 60 min, then with UNC-45 (wild-type or ts-mutant) on ice for 60 min; S200 PC 3.2 column, 20 mM Tris pH 8.0, 150 mM NaCl; conditions: both partners purified
T2 construct: UNC-45, C. elegans myosin chaperone, wild type; also called wt UNC-45; wt chaperone; source: E. coli BL21(RIL), purified (NiNTA, anion exchange, SEC)
T2 sequence: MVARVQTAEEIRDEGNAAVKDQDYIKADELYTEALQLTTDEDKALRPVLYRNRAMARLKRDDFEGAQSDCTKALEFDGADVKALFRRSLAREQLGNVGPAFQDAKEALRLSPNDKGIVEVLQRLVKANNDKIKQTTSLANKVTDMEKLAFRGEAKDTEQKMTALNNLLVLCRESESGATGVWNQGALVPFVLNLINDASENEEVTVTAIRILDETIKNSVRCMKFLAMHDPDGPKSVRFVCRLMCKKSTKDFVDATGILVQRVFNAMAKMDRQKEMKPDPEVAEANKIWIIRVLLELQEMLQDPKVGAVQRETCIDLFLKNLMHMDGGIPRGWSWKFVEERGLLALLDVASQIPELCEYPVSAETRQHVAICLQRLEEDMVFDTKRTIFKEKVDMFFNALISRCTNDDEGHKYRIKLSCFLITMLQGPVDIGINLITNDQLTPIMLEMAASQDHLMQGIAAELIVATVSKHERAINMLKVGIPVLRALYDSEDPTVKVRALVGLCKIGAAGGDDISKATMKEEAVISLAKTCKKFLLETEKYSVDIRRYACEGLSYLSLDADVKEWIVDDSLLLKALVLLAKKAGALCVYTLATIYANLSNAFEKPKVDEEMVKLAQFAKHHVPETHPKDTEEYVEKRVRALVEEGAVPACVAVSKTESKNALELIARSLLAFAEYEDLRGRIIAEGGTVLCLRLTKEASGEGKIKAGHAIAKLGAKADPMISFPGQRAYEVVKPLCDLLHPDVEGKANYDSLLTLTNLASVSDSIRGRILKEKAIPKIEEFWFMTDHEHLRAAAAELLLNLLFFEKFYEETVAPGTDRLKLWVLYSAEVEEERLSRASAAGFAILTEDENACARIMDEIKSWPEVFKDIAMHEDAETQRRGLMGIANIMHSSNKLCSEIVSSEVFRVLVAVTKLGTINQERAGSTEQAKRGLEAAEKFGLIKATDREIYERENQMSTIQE

[4] = target: the molecule itself; test: crystal structure; UNC-45 mutant crystals grown by sitting drop vapor diffusion at 19 °C

Molecule: Nc1ncnc2c1ncn2[C@@H]1O[C@H](COP(=O)(O)OP(=O)(O)O)[C@@H](O)[C@H]1O [ADP]
X-ray crystal structure, 1.9 A [1]: we crystallized MHC-B and determined the structure of the ADP-bound state

Molecule: Nc1ncnc2c1ncn2[C@@H]1O[C@H](COP(=O)(O)OP(=O)(O)OP(=O)(O)O)[C@@H](O)[C@H]1O [ATP]
stopped-flow single turnover, intrinsic tryptophan fluorescence [2]: Upon ATP binding to the myosin motor domain Trp fluorescence is enhanced

binding result [3]: binds
B1: MHC-B muscle myosin motor domain (residues 1–790) (domain or fragment, C. elegans, UniProt P02566 1-790, looked up)
chain: T1 sequence (P02566 1-790)
notes: C. elegans body wall muscle myosin II heavy chain isoform B (MHC-B, UNC-54), motor domain, residues 1-790, cloned from C. elegans cDNA; In the SEC assays with UNC-45 the protein was heat-damaged (unfolded or misfolded) at 27 °C; Two vectors (pFastBac DUAL, pACEBac1) encode the same 1-790 His6 protein; also called myosin II heavy chain isoform B; UNC-54; source: High Five insect cells, …

B2: UNC-45 G427E (ts mutant, bacterial) (natural protein, C. elegans, UniProt G5EG62 1-961, looked up)
chain: T2 sequence with G427E
notes: UNC-45, C. elegans, temperature-sensitive point mutant G427E; the SEC assays used the native protein; also called tsG427E; source: E. coli BL21(RIL), purified (NiNTA, anion exchange, SEC); SeMet protein from B834-DE3 cells
binding result [4]: binds
